Reference: article PMC12624434 (ACS Pharmacology & Translational Science, 2025)
Entries after “also recorded” stand apart in the source; their conditions may differ. Marks after values point to notes of the source that are not given here.

What was measured:
[1] = test system: VEGFA-induced aversion to mechanical stimuli in rats; assay: Conditioned place aversion (CPA) to 10 g vF stimulation after VEGFA; format: in vivo, rat
Description: (§1) The procedure was performed as reported previously. Briefly, rats were gently restrained in a fabric cloth and given an intraplantar injection in the hind-paw containing VEGFA165 (10 nM) and compound (EG00229 or 12h, at 30 or 10 μM) alone or in combination in 50 μL of PBS vehicle (NaCl 137 mM, KCl 2.5 mM, Na2HPO4 10 mM, and KH2PO4 1.8 mM), using a 31G needle.
The experiments were conducted in a two-chamber device based on the protocols from and as previously described. The protocol includes 4 × 10 min of sequential tests of preconditioning (10 min), conditioning (2 × 10 min) and testing (10 min). During preconditioning, the animal is allowed free access to two connected chambers (30 × 30 × 19 cm), each associated with a scented lip-balm applied to the walls. Immediately following preconditioning, a divider was applied between the chambers, and the rats were conditioned to either stimuli or no-stimuli for 10 min in each chamber. The stimuli consisted of repeated stimulation with a 10 g VF-filament every 30 s for the 10 min that the subject was contained in that chamber, while no stimuli (NS) was applied in the other chamber. The order and side of conditioning was alternated between subjects. Following the conditioning, the divider was removed, and the rat was allowed free access to both chambers for the 10 min test. Animal movements in each chamber were recorded by a camera above, and the duration of time spent in each chamber was recorded during preconditioning and test phase. Decreased time spent in a chamber during the test versus preconditioning indicated avoidance for that chamber and was calculated as a CPA-score: time in VF-chamber during preconditioning – time in VF-chamber during test.

[2] = test system: VEGFA-induced mechanical allodynia in rats; assay: VEGFA-induced mechanical allodynia (von Frey), intraplantar injection; format: in vivo, rat
Description: as §1

[3] = for comparison; no reference given; cited from earlier work
[4] = test system: P-p38 in human brain endothelial cell line hCMEC/D3; assay: p38 phosphorylation in hCMEC/D3 cells (immunoblotting); format: cell-based
Description: Cell lysates of the human brain endothelial cell line hCMEC/D3 were prepared in RIPA buffer containing 0.1% SDS, protease inhibitor cocktail 2 and phosphatase inhibitor cocktail (Sigma-Aldrich). Proteins were separated by SDS-PAGE and transferred to nitrocellulose by wet electrotransfer. Membranes were blocked with 5% milk in Tris-buffered saline (TBS) overnight at 4 °C and then incubated with the appropriate primary antibody diluted in TBS containing 0.1% Tween-20 and 1% BSA for 2 h and 30 min at rt; the primary antibodies used were specific for phospho P-p38, p38 (1:1000; Cell Signaling Technology) and GADPH (1:10000; Merck). Membranes were washed with 0.1% Tween-20 in TBS and then incubated with goat antimouse or goat antirabbit horseradish peroxidase (HRP)-conjugated IgG (GE Healthcare) diluted 1:10,000 or 1:5000, respectively, with 0.1% Tween-20, 1% BSA in PBS. Membranes were developed using the ECL reagents (Roche) and images were acquired with the Bio-Rad ChemiDoc MP Imaging System and the Bio-Rad Image Lab software (version 6.0.1). Protein bands were quantified using ImageJ software version 1.52a (NIH Bethesda), whereby signal intensity was normalized to signal intensity from GADPH from the same sample as a loading control. Phosphorylation levels were normalized against the total levels of p38. Densitometric quantification of three independent immunoblots was determined by changes in protein or phosphoprotein content normalized to GADPH total protein loading controls, with values expressed as fold increase. Data are shown as mean ± SD. Statistical analysis included one-way ANOVA with significance levels set at 0.05, followed by posthoc Dunnett’s tests.

[5] = test system: T180/Y182 phosphorylated p38 (P-p38) in retinal endothelium; assay: VEGFA-induced p38 phosphorylation in ex vivo mouse retina (immunostaining); format: cell-based
Description: Retinae from C57Bl/6J mice were fixed in 4% formaldehyde in PBS for 1 h and washed three times with PBS. After 1 h in blocking buffer (3% Triton X-100, 1%1% Tween and 0.5% BSA in 2× PBS), retinae were immunostained by incubation with rabbit anti-P-p38 MAPK (Thr180/Tyr182) antibody (Cell Signaling) and biotin-conjugated Isolectin B4 (IB4, Merck) overnight at 4 °C, followed by Alexa Fluor 555–conjugated goat antirabbit antibodies (Invitrogen) and Alexa Fluor 488-conjugated streptavidin (Invitrogen) respectively for 1 h at rt. Images were acquired with a Zeiss Axioskop 2 microscope, using a ph3 Plan-Apochromat 63×/1.40 oil objective, Hamamatsu camera and the HCImage software. Each image was acquired as an RGB color image and then processed with ImageJ software version 1.52a (NIH Bethesda). Channels were split to separate the IB4 staining (green channel) from the P-p38 staining (red channel). The threshold function was used on the IB4 image to determine the area of the vessels and to generate a mask that was restored in the red channel image to measure the area of the vessels positive to P-p38 staining. The P-p38 staining area was normalized against the area stained with IB4. Three retinae from three different mice per condition were used for analysis. One-way ANOVA was used to compare the different treatments.

NRP1 b1 domain = target: T1, NRP1 b1 domain (Homo sapiens, UniProt O14786); assay: SPR binding to immobilized NRP1 b1 domain (Biacore 4000, CM5 chip); conditions: steady-state binding, 25 °C; mean ± SD; read-out: SPR NRP1 b1 domain equilibrium KD
T1 construct: with the purified recombinant NRP1 b1 domain immobilized on the chip; inferred from Ni-NTA capture), TEV-cleavable (cleaved yes); made in house; host or cells: E. coli Rosetta (DE3)
T1 sequence (O14786 275-424 limits assumed): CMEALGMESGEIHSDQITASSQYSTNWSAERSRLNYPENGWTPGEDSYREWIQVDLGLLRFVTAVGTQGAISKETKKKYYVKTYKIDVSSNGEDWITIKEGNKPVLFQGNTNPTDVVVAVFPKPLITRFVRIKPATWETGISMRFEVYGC
Description: Surface Plasmon Resonance experiments were performed using a Biacore 4000 instrument at a constant temperature of 25 °C. Sensor chips, buffer stock solutions, and immobilization reagents were purchased from GE Healthcare. Recombinant human NRP1-b1 was produced in-house and recombinant human NRP1-ECD (extracellular domain) was purchased from ACRO (catalogue number NR1-H5A228). All other reagents were obtained from Sigma.
PBS containing 0.05% surfactant P20 was used as the running buffer during immobilization. NRP1-b1 was immobilized onto a CM5 chip using random amine coupling. The four flow cells were treated in the same way to optimize throughput. In summary, spots 1 and 2 were activated with the coupling reagents EDC and NHS for 10 min. NRP1-b1 at a concentration of 20 μg/mL in 10 mM sodium acetate pH 5 was injected onto the surface for 10 and 5 min in spots 1 and 2, respectively to generate surfaces with high and low density. […] The unmodified spot 3 was used as a reference.
PBS buffer containing 0.05% surfactant P20 and 3% DMSO was used as the running buffer and sample dilution buffer throughout these experiments. Dose–responses were obtained using a 2-fold sample dilution from 16 μM to 31 nM, using an injection time of 60 s. Surface regeneration between injections was not necessary, but a wash step with 1 M NaCl was included after injection of the highest concentration sample for each compound.
Binding curves were corrected for variations in DMSO concentration and normalized by molecular weight. Binding results to high and low-density surfaces were processed independently and the average ± SD is presented. K Ds reported are derived from steady-state binding responses and therefore correspond to the equilibrium binding affinity of the compounds.

[6] = test system: total Na+ currents in rat DRG neurons; assay: Whole-cell patch-clamp of Na+ currents in dissociated DRG neurons; format: cell-based; conditions: for V 1/2 activation, total Na+ / V 1/2 inactivation, total Na+: mean ± SEM (n cells)
Description: Recordings were obtained from acutely dissociated DRG neurons obtained from female rats as described earlier. Patch-clamp recordings were performed at room temperature (22–24 °C). Currents were recorded using an EPC 10 Amplifier-HEKA (HEKA Elektronik, Ludwigshafen, Germany) linked to a computer with Patchmaster software.
To determine the effect of VEGFA application on voltage-gated sodium currents, we incubated DRG neurons for 30 min with recombinant rat VEGFA, 1 nM (Cat#P4853, Abnova, Taipei, Taiwan) before whole-cell patch-clamp recordings. […] For the control condition, DRG neurons were incubated for 30 min with DMSO at a final concentration of 0.1%.
For Na^+ current (I Na+) recordings, the external solution contained (in mM): 130 NaCl, 3 KCl, 30 tetraethylammonium chloride, 1 CaCl2, 0.5 CdCl2, 1 MgCl2, 10 D-glucose and 10 HEPES (pH 7.3 adjusted with NaOH, and mOsm/L = 315). Patch pipettes were filled with an internal solution containing (in mM): 140 CsF, 1.1Cs-EGTA, 10 NaCl, and 15 HEPES (pH 7.3 adjusted with CsOH, and mOsm/L = 300). Peak Na^+ current was acquired by applying 150 ms voltage steps from – 70 to +60 mV in 5-mV increments from a holding potential of – 60 mV to obtain the current–voltage (I–V) relation.
Normalization of currents to each cell’s capacitance (pF) was performed to allow for collection of current density data. For I–V curves, functions were fitted to data using a nonlinear least-squares analysis. I–V curves were fitted using double Boltzmann functions: f=a+g1/(1+exp((x−V1/21)/k1))+g2/(1+exp(−(x−V1/22)/k2)) where x is the membrane potential, V 1/2 is the midpoint potential and k is the corresponding slope factor for single Boltzmann functions. Double Boltzmann fits were used to describe the shape of the curve, not to imply the existence of separate channel populations. Numbers 1 and 2 simply indicate first and second midpoints; a along with g are fitting parameters.
Activation curves were obtained from the I–V curves by dividing the peak current at each depolarizing step by the driving force according to the equation: G = I/(V mem – E rev), where I is the peak current, V mem is the membrane potential and E rev is the reversal potential. The conductance (G) was normalized against the maximum conductance (G max). Steady-state inactivation (SSI) curves were obtained by applying an H-infinity protocol that consisted of 1-s conditioning prepulses from −120 to +10 mV in 10-mV increments followed by a 200 ms test pulse to +10 mV. Inactivation curves were obtained by dividing the peak current recorded at the test pulse by the maximum current (I max). Activation and SSI curves were fitted with the Boltzmann equation.

[7] = 30 μM, 15 min prior to VEGFA165 stimulation

## NC(N)=NCCCC(NC(=O)c1sccc1NS(=O)(=O)c1cccc2nsnc12)C(=O)O (centres unmarked) [EG00229, reference compound]
[1]; 10 μM, male rats
  effect on VEGFA-induced aversion in CPA-paradigm: had no effect
[1]; 30 μM coinjected with VEGFA 10 nM, male and female rats
  VEGFA-induced aversion (time in vF-conditioned chamber): prevented the stimulus-aversion from VEGFA in both sexes; also recorded: the aversion was prevented
[1]; 30 μM, female rats
  CPA-score vs VEGFA/vehicle: showed a significant effect
[2]; 10 μM coinjected with VEGFA, male rats
  effect on VEGFA-induced mechanical allodynia: produced significant antinociceptive effects
[2]; 30 μM coinjected with VEGFA165 10 nM, 50 μL intraplantar, male and female rats
  effect on VEGFA-induced mechanical allodynia (paw withdrawal threshold, AUC 0-6 h): comparable antinociceptive effects in males and females
[3]
  half-life: 34.8 min
[4]; 30 μM alone, 5 min
  p38 phosphorylation when added alone: induced p38 kinase phosphorylation
[4]; [7]
  effect on VEGFA-induced p38 phosphorylation: prevented VEGFA-induced p38 phosphorylation
[5]; 30 μM alone, 5 min
  p38 phosphorylation when added alone: induced p38 phosphorylation
[5]; [7]
  effect on VEGFA-induced p38 phosphorylation in retinal endothelium: prevented VEGFA-induced p38 phosphorylation
NRP1 b1 domain
  Kd: 2710 ± 130 nM
[6]; 30 μM alone, 30 min
  effect on Na+ currents, alone: Neither EG00229 nor 12h alone had any obvious effect
[6]; 30 μM, then VEGFA165 1 nM 30 min, small-sized DRG neurons
  effect on VEGFA-induced increase in Na+ currents and current density: equally reduced
[6]; compound 30 μM + VEGFA
  V 1/2 activation, total Na+: –16.384 ± 0.773 (15) ^b mV
  V 1/2 inactivation, total Na+: –49.707 ± 2.554 (15) mV
[6]; compound alone, 30 μM
  V 1/2 activation, total Na+: –15.229 ± 0.972 (10) ^b mV
  V 1/2 inactivation, total Na+: –49.108 ± 2.415 (10) mV
